Experimental data taken from patent US8048455B2, “Treatment of cancer and inflammatory disorder” (Academia Sinica, priority 2006, dated 2011).

Assays:
[1] = tested on: LPS binding to LPS receptors on macrophages; test: Binding of FITC-labeled LPS to macrophages; format: cell-based, murine
B16 melanoma = test: In vivo inhibition of B16 melanoma growth in C57BL/6J mice; settings: mouse, in vivo, ip
Experimental: The chemopreventive effect of the CREa8 subfraction was evaluated on tumor growth using the B16 melanoma C57BL/6J mouse system. Six-week-old animals (4 groups of mice, 5 in each group) were used in this experiment. Group 1 mice (Sham control) were intraperitoneally (i.p.) injected with 20 μL of DMSO every 2 days throughout the experimental period, except 100 μL PBS was injected on day 0. Group 4 mice (Tumor control) were pre-treated with DMSO every 2 days, starting from day—14, for 2 weeks, inoculated with B16 tumor cells (1×10^6 cells/100 μL PBS) subcutaneously (s.c.) on the abdominal area on day 0, and then injected with DMSO every 2 days until day 21. Group 2 mice were i.p. pre-treated with CREa8 (10 mg/kg body weight per dose) every 2 days, starting from day—14, for 2 weeks, s.c. inoculated with B16 tumor cells on day 0, and then continuously treated with CREa8 (i.p.) every 2 days until day 21. Group 3 mice were similarly pre-treated with DMSO every 2 days for 2 weeks, inoculated with B16 tumor cells on day 0, and then treated with cisplatin (i.p.) every 2 days until day 21. The test mice were monitored daily, and body weights and tumor size (average of 2 dimensions) recorded every 2 days. At the end of the experiment (day 21), tumors were excised and weighed.
The cancer prevention efficacy of the dLGG-rich fraction (CREa8) was examined in vivo in 4 groups of mice according to the method described above. Cisplatin, a cancer chemotherapeutic, was used as a reference control.

SMILES: CC/C=C\C/C=C\C/C=C\CCCCCCCC(=O)OC[C@H](CO[C@@H]1O[C@H](CO)[C@H](O)[C@H](O)[C@H]1O)OC(=O)CCCCCCC/C=C\C/C=C\C/C=C\CC [dLGG, 1,2-di-O-α-linolenoyl-3-O-β-galactopyranosyl-sn-glycerol]
- Binding of FITC-labeled LPS to the test macrophages [1]: dose-dependently suppress
- Mortality or body weight loss on i.p. administration (B16 melanoma): without mortality or body weight loss
